“And” between values parts separate entries of the source, which are not always exact repeats. Equal entries are not always repeated.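 Where inhibition never reached the appropriate level, the endpoint shown equals the highest concentration tested. Otherwise, values were interpolated linearly from a five-concentration, 48-hour dose response in 96-well plates. GI50: concentration for 50% inhibition of growth. TGI denotes the concentration required for complete inhibition of growth.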
Tests used:
Experiment in all cases: DTP human tumour cell line panel, 48 h; in the data active = GI50 below about 0.43 µM; inactive = the rest
XF 498 CNS = test system: XF 498 CNS
SF-539 CNS = test system: SF-539 CNS
M19-MEL melanoma = test system: M19-MEL melanoma
DMS 273 small cell lung = test system: DMS 273 small cell lung
DLD-1 colon = test system: DLD-1 colon
DMS 114 small cell lung = test system: DMS 114 small cell lung
HOP-18 NSCLC = test system: HOP-18 NSCLC
LXFL 529 NSCLC = test system: LXFL 529 NSCLC
SNB-78 CNS = test system: SNB-78 CNS
EKVX NSCLC = test system: EKVX NSCLC
BT-549 breast = test system: BT-549 breast

COc1nc(OC)nc(Sc2ccc(Sc3ccc(Sc4nc(OC)nc(OC)n4)cc3)cc2)n1
> 100 µM: TGI (XF 498 CNS) | TGI (SF-539 CNS) | TGI (M19-MEL melanoma) | TGI (DMS 273 small cell lung) | TGI (DLD-1 colon) | TGI (DMS 114 small cell lung) | TGI (HOP-18 NSCLC) | TGI (LXFL 529 NSCLC) | TGI (SNB-78 CNS) | TGI (EKVX NSCLC)

CCCc1cc(-c2ccc(-c3cc(CCC)c(C=O)[nH]3)s2)[nH]c1C=O
65 µM: TGI (DMS 114 small cell lung)
> 100 µM: TGI (XF 498 CNS) | TGI (SF-539 CNS) | TGI (M19-MEL melanoma) | TGI (DMS 273 small cell lung) | TGI (BT-549 breast) | TGI (DLD-1 colon) | TGI (HOP-18 NSCLC) | TGI (LXFL 529 NSCLC) | TGI (SNB-78 CNS) | TGI (EKVX NSCLC)

CC#Cc1c(C#CC)c(OC)c2c(c1OC)C(=O)c1ccccc1C2=O
89 µM: TGI (DMS 114 small cell lung)
> 100 µM: TGI (XF 498 CNS) | TGI (M19-MEL melanoma) | TGI (DMS 273 small cell lung) | TGI (DLD-1 colon) | TGI (LXFL 529 NSCLC) | TGI (EKVX NSCLC)

Cc1nc2nn(C)cc2c(=O)n1/N=C/c1ccccc1
> 100 µM: TGI (XF 498 CNS) | TGI (SF-539 CNS) | TGI (M19-MEL melanoma) | TGI (DMS 273 small cell lung) | TGI (DLD-1 colon) | TGI (DMS 114 small cell lung) | TGI (HOP-18 NSCLC) | TGI (SNB-78 CNS) | TGI (EKVX NSCLC)

COc1ccc(/C=C(\Cl)c2ccc(OC)cc2)cc1
> 100 µM: TGI (SF-539 CNS) | TGI (M19-MEL melanoma) | TGI (DMS 273 small cell lung) | TGI (DLD-1 colon) | TGI (DMS 114 small cell lung) | TGI (LXFL 529 NSCLC) | TGI (EKVX NSCLC)

O=C1c2ccccc2C(=O)c2c(O)c(NCCNCCO)cc(O)c21
18.1 µM: TGI (LXFL 529 NSCLC)
14.4 µM: TGI (SF-539 CNS) | TGI (EKVX NSCLC)
12 µM: TGI (DMS 273 small cell lung)
11.1 µM: TGI (DLD-1 colon)
19 µM: TGI (XF 498 CNS)
15.2 µM: TGI (M19-MEL melanoma)
18.7 µM: TGI (SNB-78 CNS)
18.8 µM: TGI (HOP-18 NSCLC)
16.1 µM: TGI (DMS 114 small cell lung)

C(=N/NC1=NCCN1)/c1c2ccccc2c(/C=N\NC2=NCCN2)c2ccccc12
inactive: GI50 (DLD-1 colon) 1320 nM
0.603 µM and 0.421 µM: TGI (DMS 114 small cell lung)
0.372 µM and 0.298 µM: TGI (XF 498 CNS)
3.83 µM and 9.8 µM: TGI (SNB-78 CNS)
27.9 µM and 250 µM: TGI (DLD-1 colon)
0.888 µM and 1.5 µM: TGI (HOP-18 NSCLC)
0.355 µM and 0.258 µM: TGI (M19-MEL melanoma)
active: GI50 (XF 498 CNS) 52.4 nM | GI50 (M19-MEL melanoma) 60.5 nM | GI50 (DMS 273 small cell lung) 50.4 nM | GI50 (BT-549 breast) 244 nM and 96 nM | GI50 (DMS 114 small cell lung) 49.1 nM and 60.6 nM | GI50 (HOP-18 NSCLC) 282 nM | GI50 (SNB-78 CNS) 368 nM
2.32 µM and 2.94 µM and 1.57 µM: TGI (EKVX NSCLC)
0.345 µM and 0.857 µM and 0.402 µM: TGI (SF-539 CNS)
0.892 µM and 0.347 µM: TGI (BT-549 breast)

Cc1ccccc1NC(=O)CSc1nnc(Cc2ccccc2)o1
> 100 µM: TGI (SF-539 CNS) | TGI (M19-MEL melanoma) | TGI (DMS 273 small cell lung) | TGI (DLD-1 colon) | TGI (DMS 114 small cell lung) | TGI (HOP-18 NSCLC) | TGI (LXFL 529 NSCLC) | TGI (SNB-78 CNS)

Cc1ccc(F)c2c(=O)cc(-c3ccccc3)[nH]c12
> 100 µM: TGI (SF-539 CNS) | TGI (M19-MEL melanoma) | TGI (DMS 273 small cell lung) | TGI (DLD-1 colon) | TGI (DMS 114 small cell lung) | TGI (HOP-18 NSCLC) | TGI (LXFL 529 NSCLC)

CC1=C(C(=O)NC(C)(C)C)CC(C(=O)NC(C)(C)C)C(C)N1 (centres undefined)
> 100 µM: TGI (SF-539 CNS) | TGI (BT-549 breast) | TGI (EKVX NSCLC)

CN(C)Cc1[nH]c2ccccc2c1C(=O)c1ccccc1
> 100 µM: TGI (XF 498 CNS) | TGI (SF-539 CNS) | TGI (DMS 273 small cell lung) | TGI (DLD-1 colon) | TGI (LXFL 529 NSCLC)

CSc1nc(-c2ccc(Cl)cc2)c(C#N)c(=O)[nH]1
> 100 µM: TGI (SF-539 CNS) | TGI (BT-549 breast) | TGI (EKVX NSCLC)

CC(=O)C1=NN(c2ccccc2)C2(S1)SC(c1ccccc1)(c1ccccc1)c1ccccc12 (centres undefined)
> 100 µM: TGI (SF-539 CNS) | TGI (M19-MEL melanoma) | TGI (DLD-1 colon) | TGI (DMS 114 small cell lung) | TGI (HOP-18 NSCLC) | TGI (LXFL 529 NSCLC) | TGI (SNB-78 CNS) | TGI (EKVX NSCLC)
73.6 µM: TGI (DMS 273 small cell lung)

CC(=O)Nc1nnc(S(=O)(=O)NC(=S)Nc2ccc(Cl)cc2)s1
> 100 µM: TGI (SF-539 CNS) | TGI (BT-549 breast) | TGI (EKVX NSCLC)

CC(=O)Oc1cc(S(=O)(=O)Nc2n[nH]c(N)n2)c(S)cc1Cl
> 100 µM: TGI (SF-539 CNS) | TGI (BT-549 breast) | TGI (EKVX NSCLC)

O=C(O)CO/N=C1/C(c2c(O)[nH]c3ccccc23)=Nc2ccccc21
> 100 µM: TGI (SF-539 CNS) | TGI (BT-549 breast) | TGI (EKVX NSCLC)

Cc1cc(C(O)CNC(C)CCn2cnc3c2c(=O)n(C)c(=O)n3C)ccc1O (centres undefined)
> 100 µM: TGI (SF-539 CNS) | TGI (BT-549 breast) | TGI (EKVX NSCLC)

COC(=O)[C@@H]1[C@H](O)CC[C@H]2[C@@]1(C)CC[C@@H](C)[C@]2(COC(C)=O)CC(=O)c1ccoc1
> 50 µM: TGI (SF-539 CNS) | TGI (BT-549 breast) | TGI (EKVX NSCLC)

CCOC(=O)c1ccc(Nc2cnc3ccc(C(F)(F)F)cc3n2)cc1
63.4 µM: TGI (SF-539 CNS)
58.4 µM: TGI (EKVX NSCLC)
34 µM: TGI (BT-549 breast)

CCCOP(=S)(N1CC1)N1CC1
> 100 µM: TGI (XF 498 CNS) | TGI (SF-539 CNS) | TGI (M19-MEL melanoma) | TGI (DMS 273 small cell lung) | TGI (DLD-1 colon) | TGI (DMS 114 small cell lung) | TGI (HOP-18 NSCLC) | TGI (SNB-78 CNS) | TGI (EKVX NSCLC)

O=C(Nc1ccc(S(=O)(=O)Nc2ncccn2)cc1)c1c2ccccc2nc2ccccc12
> 100 µM: TGI (SF-539 CNS) | TGI (BT-549 breast) | TGI (EKVX NSCLC)

CCOC(=O)c1c(NC(=O)c2ccc(Br)cc2)sc2c1CCCC2
> 100 µM: TGI (SF-539 CNS) | TGI (BT-549 breast) | TGI (EKVX NSCLC)

Source: PubChem BioAssay (NCI)
